The text below walks through data of ChEMBL document CHEMBL1159321, “Novel acylated triterpene glycosides from Muraltia heisteria” (J Nat Prod, 2002).

The source made the active and inactive calls. The calls are words filed in the database; no cut-off is given here.

For the experiment, the system named is HT-29. In words: Cytotoxicity against human HT-29 cells at 12 to 50 ug/ml. Format: functional, cell-based.

On to `COc1cc(/C=C/C(=O)O[C@@H]2[C@H](O)[C@@H](O[C@@H]3O[C@@H](C)[C@H](O[C@@H]4OC[C@@H](O)[C@H](O[C@@H]5O[C@H](CO)[C@H](O[C@@H]6OC[C@H](O)[C@H](O)[C@H]6O)[C@H](O)[C@H]5O)[C@H]4O)[C@@H](O)[C@H]3O)[C@H](OC(=O)[C@]34CCC(C)(C)C[C@H]3C3=CC[C@@H]5[C@@]6(C)C[C@H](O)[C@H](O[C@@H]7O[C@H](CO)[C@@H](O)[C@H](O)[C@H]7O)[C@@](C)(C(=O)O)[C@@H]6CC[C@@]5(C)[C@]3(CO)CC4)O[C@@H]2C)cc(OC)c1OC`, for which the result was Active.
